Source: US20100048498A1, “STABLE NON-DIHYDRATE AZITHROMYCIN ORAL SUSPENSIONS” (priority 2004, published 2010)

Tests used:
Format in all cases: physicochemical
[1] = Effect of individual flavorings and sucrose on conversion of azithromycin form G to form A in pH 8.16 buffer; set-up: key: AC means all converted to form A; details: 18 mls pH 8.16 buffer, room temperature
Procedure: To evaluate a proposed excipient, the active dose of the azithromycin was suspended with the desired amount of potential excipient in a 0.1 M phosphate buffer system adjusted to a pH of 8.16. The buffer system was created by dissolving 13.738 g of NaH2PO4.H2O in 900 ml of water, adjusting the pH to 8.16 with sodium hydroxide, and diluting the solution to 1 liter with water. The sample, once constituted with buffer, was then stored at room temperature for the desired constituted product shelf-life. The azithromycin product was then isolated through filtration, and the resulting solid filtrate analyzed by a Solid-State Nuclear Magnetic Resonance method described previously that allows for quantitation of the dihydrate form present.
The effect of various individual flavoring components and of sucrose upon conversion of azithromycin form G to azithromycin dihydrate (form A), in suspensions, were evaluated as follows.
An 820 mg dose of form G azithromycin was weighed and mixed with 200 mg of each flavoring or sucrose. The mass of each flavoring, used in this test, was chosen to match that of the anticipated required amount for effective flavoring in the constituted POS. In this example, five flavorings, specifically artificial crème de vanilla, B&C banana, Trusil banana, Trusil cherry and artificial grape were investigated in addition to sucrose. Each of the binary samples were then constituted with 18 mls of pH=8.16 buffer and stored for 1, 5 and 10-days at room temperature.
A control suspension of azithromycin form G constituted with 18 mls of pH=8.16 buffer was run with each series of experiments using the same storage conditions. Upon completion of the constituted storage time period these samples were filtered to isolate drug product and analyzed using the SS-NMR method to quantify the amount of azithromycin dihydrate present.

[2] = Stability of non-dihydrate azithromycin in suspension (POS formulation II or bulk drug in water); SS-NMR quantification of form A
Procedure: The stability of various forms of non-dihydrate azithromycin, in water and in flavored oral suspensions, was evaluated. Specifically, non-dihydrate azithromycin forms G, M, N, F and J were separately used in POS formulation II. These POS formulations were constituted by mixing with 18 mls of water. The suspensions were then stored for 1, 5 and 10 days at either 5° C. or 30° C. Suspensions of bulk azithromycin forms G, M, N, F and J were also constituted with 18 mls of water and stored under the same conditions.
Upon conclusion of the storage time period the suspensions were filtered and suspended solids collected as described previously.

[3] = Effect of cyclodextrins on non-dihydrate azithromycin form conversion in constituted POS formulation II; details: 24 hours room temperature
Procedure: The effect of adding a complexing agent such as cyclodextrin on the stability of non-dihydrate azithromycin forms G, M and F against conversion in a constituted POS formulation were evaluated.
Forms G, M and F of azithromycin were formulated into POS formulation II. Various cyclodextrins were added to the POS formulation II and the resulting samples were constituted with 18 mls of water. The suspensions were then stored for 24 hours at room temperature. At the end of the storage time, the suspensions were filtered and the recovered solids were weighed and analyzed by SS-NMR to quantify the presence of azithromycin dihydrate (form A). The control samples were formulated into formulation II with non-dihydrate azithromycin form G, M and F without cyclodextrins and were constituted with water, stored, filtered and analyzed identically to the cyclodextrin samples described above. A control, which had no cyclodextrin was run with each series of experiments. The SS-NMR data are presented in Tables 10, 11, 12 and the results are given as weight percent (% wt), of the recovered azithromycin sample.

CC[C@H]1OC(=O)[C@H](C)[C@@H](O[C@H]2C[C@@](C)(OC)[C@@H](O)[C@H](C)O2)[C@H](C)[C@@H](O[C@@H]2O[C@H](C)C[C@H](N(C)C)[C@H]2O)[C@](C)(O)C[C@@H](C)CN(C)[C@H](C)[C@@H](O)[C@]1(C)O [Form G, azithromycin sesquihydrate]
Δ % Form A ([1]; 820 mg form G + 200 mg Artificial Crème de Vanilla Flavor, constituted 1 day, listed as form G, sesquihydrate): did not exhibit conversion
Δ % Form A ([1]; 820 mg form G + 200 mg Artificial Crème de Vanilla Flavor, constituted 1 day, sesquihydrate): 0%
Δ % Form A ([1]; 820 mg form G + 200 mg Artificial Crème de Vanilla Flavor, constituted 5 days): 4%
Δ % Form A ([1]; 820 mg form G + 200 mg Artificial Crème de Vanilla Flavor, constituted 10 days): 30%
Δ % Form A ([1]; 820 mg form G + 200 mg Artificial Grape Flavor, constituted 1 day): 57%
Δ % Form A ([1]; 820 mg form G + 200 mg Artificial Grape Flavor, constituted 5 days): 75%
Δ % Form A ([1]; 820 mg form G + 200 mg Artificial Grape Flavor, constituted 10 days): AC
Δ % Form A ([1]; 820 mg form G + 200 mg B&C Banana Flavor, constituted 1 day, listed as form G, sesquihydrate): did not exhibit conversion
Δ % Form A ([1]; 820 mg form G + 200 mg B&C Banana Flavor, constituted 1 day, sesquihydrate): 0%
Δ % Form A ([1]; 820 mg form G + 200 mg B&C Banana Flavor, constituted 5 days): 27%
Δ % Form A ([1]; 820 mg form G + 200 mg B&C Banana Flavor, constituted 10 days): AC
Δ % Form A ([1]; 820 mg form G + 200 mg Sucrose, constituted 1 day): 2%
Δ % Form A ([1]; 820 mg form G + 200 mg Sucrose, constituted 5 days): 1%
Δ % Form A ([1]; 820 mg form G + 200 mg Sucrose, constituted 10 days, listed as form G, sesquihydrate): only minimal conversion
Δ % Form A ([1]; 820 mg form G + 200 mg Sucrose, constituted 10 days, sesquihydrate): 6%
Δ % Form A ([1]; 820 mg form G + 200 mg Trusil Banana Flavor, constituted 1 day): 32%
Δ % Form A ([1]; 820 mg form G + 200 mg Trusil Banana Flavor, constituted 5 days): 57%
Δ % Form A ([1]; 820 mg form G + 200 mg Trusil Banana Flavor, constituted 10 days): AC
Δ % Form A ([1]; 820 mg form G + 200 mg Trusil Cherry Flavor, constituted 1 day): 32%
Δ % Form A ([1]; 820 mg form G + 200 mg Trusil Cherry Flavor, constituted 5 days): 75%
Δ % Form A ([1]; 820 mg form G + 200 mg Trusil Cherry Flavor, constituted 10 days): AC
% A (azithromycin dihydrate, form A, of recovered azithromycin) ([2]; Bulk Drug in 18 mls water, 5° C., Day 1): 1%
% A (azithromycin dihydrate, form A, of recovered azithromycin) ([2]; Bulk Drug in 18 mls water, 5° C., Day 5): 6%
% A (azithromycin dihydrate, form A, of recovered azithromycin) ([2]; Bulk Drug in 18 mls water, 5° C., Day 10): 12%
% A (azithromycin dihydrate, form A, of recovered azithromycin) ([2]; Bulk Drug in 18 mls water, 30° C., Day 1): 3%
% A (azithromycin dihydrate, form A, of recovered azithromycin) ([2]; Bulk Drug in 18 mls water, 30° C., Day 5): 26%
% A (azithromycin dihydrate, form A, of recovered azithromycin) ([2]; Bulk Drug in 18 mls water, 30° C., Day 10): 73%
% A (azithromycin dihydrate, form A, of recovered azithromycin) ([2]; Formulation II constituted with 18 mls water, 5° C., Day 1): 72%
% A (azithromycin dihydrate, form A, of recovered azithromycin) ([2]; Formulation II constituted with 18 mls water, 5° C., Day 5): 75%
% A (azithromycin dihydrate, form A, of recovered azithromycin) ([2]; Formulation II constituted with 18 mls water, 5° C., Day 10): 78%
% A (azithromycin dihydrate, form A, of recovered azithromycin) ([2]; Formulation II constituted with 18 mls water, 30° C., Day 1): 82%
% A (azithromycin dihydrate, form A, of recovered azithromycin) ([2]; Formulation II constituted with 18 mls water, 30° C., Day 5): 74%
% A (azithromycin dihydrate, form A, of recovered azithromycin) ([2]; Formulation II constituted with 18 mls water, 30° C., Day 10): 76%
% Form A ([3]; POS Formulation II + Hydroxypropyl β-cyclodextrin 1.2 % w/w, Series 2, 18 mls water): 4.0%
% Form A ([3]; POS Formulation II + Hydroxypropyl β-cyclodextrin 11.1 % w/w, Series 3, 18 mls water): 4.9%
% Form A ([3]; POS Formulation II + Sulfobutylether β-cyclodextrin 1.2 % w/w, Series 2, 18 mls water): 14.4%
% Form A ([3]; POS Formulation II + Sulfobutylether β-cyclodextrin 11.1 % w/w, Series 3, 18 mls water): 7.0%
% Form A ([3]; POS Formulation II + α-cyclodextrin 1.2 % w/w, Series 1, 18 mls water): 4.8%
% Form A ([3]; POS Formulation II + β-cyclodextrin 1.2 % w/w, Series 2, 18 mls water): 8.3%
% Form A ([3]; POS Formulation II + γ-cyclodextrin 1.2 % w/w, Series 1, 18 mls water): 13.4%
% Form A ([3]; POS Formulation II, no cyclodextrin (Control), Series 1, 18 mls water): 68.3%
% Form A ([3]; POS Formulation II, no cyclodextrin (Control), Series 2, 18 mls water): 46.5%
% Form A ([3]; POS Formulation II, no cyclodextrin (Control), Series 3, 18 mls water): 67.9%
